Measured values: patent US10420746B2, “Pharmaceutical composition containing Bay 11-7082, parthenolide or a combination thereof for the treatment of obesity or cardiovascular diseases” (priority 2015, dated 2019)

How the values were obtained:
[1] = system: human erythrocytes; assay: GSH:GSSG ratio in treated human erythrocytes; settings: 24 hours, 0.6% hematocrit, DMSO control 125:1
[2] = biological target: T1, glutathione reductase (GR) (Homo sapiens, UniProt P00390); assay: Glutathione reductase (GR) enzyme activity in lysates of treated human erythrocytes; settings: for inhibition of the enzyme GR: concentration not given
T1 sequence (P00390 1-479 isoform P00390-2): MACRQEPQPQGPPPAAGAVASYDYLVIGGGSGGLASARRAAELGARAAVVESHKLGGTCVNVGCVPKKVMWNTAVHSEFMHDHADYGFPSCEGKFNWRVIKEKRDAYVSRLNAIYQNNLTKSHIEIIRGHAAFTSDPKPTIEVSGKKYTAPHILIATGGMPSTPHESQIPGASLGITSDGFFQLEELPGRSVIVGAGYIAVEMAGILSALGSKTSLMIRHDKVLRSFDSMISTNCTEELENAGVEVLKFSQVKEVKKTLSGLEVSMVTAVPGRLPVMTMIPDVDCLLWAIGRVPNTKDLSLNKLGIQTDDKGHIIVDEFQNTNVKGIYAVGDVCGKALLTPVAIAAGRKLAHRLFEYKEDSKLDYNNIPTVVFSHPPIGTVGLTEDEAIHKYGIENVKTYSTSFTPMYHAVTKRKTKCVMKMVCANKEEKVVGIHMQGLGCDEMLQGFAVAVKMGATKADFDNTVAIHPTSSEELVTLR

[3] = biological target: glucose-6-phosphate dehydrogenase (G6PDH) (Homo sapiens, UniProt P11413); assay: G6PDH enzyme activity in lysates of treated human erythrocytes; set-up: inhibition of the G6PDH activity: dose or concentration left out as unconfirmed
Chain of glucose-6-phosphate dehydrogenase (G6PDH) (P11413 whole entry): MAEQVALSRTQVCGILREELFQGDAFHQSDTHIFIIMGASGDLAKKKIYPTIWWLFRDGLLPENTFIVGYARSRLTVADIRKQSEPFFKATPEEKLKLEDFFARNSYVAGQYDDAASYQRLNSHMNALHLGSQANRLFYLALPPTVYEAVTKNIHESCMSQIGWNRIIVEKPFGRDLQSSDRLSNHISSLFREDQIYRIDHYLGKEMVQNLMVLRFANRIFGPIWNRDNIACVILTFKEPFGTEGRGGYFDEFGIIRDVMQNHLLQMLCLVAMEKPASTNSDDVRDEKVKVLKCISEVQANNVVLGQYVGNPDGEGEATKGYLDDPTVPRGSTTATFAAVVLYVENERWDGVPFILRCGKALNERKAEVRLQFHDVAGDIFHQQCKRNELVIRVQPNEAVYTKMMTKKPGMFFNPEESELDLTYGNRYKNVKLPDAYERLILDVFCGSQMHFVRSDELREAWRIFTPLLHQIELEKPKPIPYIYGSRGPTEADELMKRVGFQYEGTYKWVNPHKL

Row | Structure (SMILES) | GSH:GSSG ratio ([1]; 140 μM) | inhibition of the enzyme GR [2] | inhibition at 140 µM ([2]; read-out: GR inhibition) [%] | inhibition at 140 µM ([3]; read-out: inhibition of G6PDH) [%] | GSH:GSSG ratio ([1]; 20 μM) | GSR inhibition ([2]; 20 μM, erythrocytes 0.6% Hct treated 24 hours) | inhibition of the G6PDH activity ([3]; (clinically relevant concentration), erythrocytes treated 24 hours) | inhibition of G6PDH ([3]; already in low concentrations) | inhibition at 20 µM ([3]; read-out: G6PDH-inhibition) [%]
1 | COC(=O)/C=C/C(=O)OC [dimethylfumarate, (E)-2-butenedioic acid dimethyl ester] | equal to 0 or approaching 0 | 50% | ≥ 50 | ≥ 50 |  |  |  |  | 
2 | Cc1ccc(S(=O)(=O)/C=C/C#N)cc1 [Bay 11-7082, 3-[(4-methylphenyl)sulfonyl]-(2E)-propenenitrile] |  | completely |  |  | equal to 0 or approaching 0 | complete GSR inhibition | complete inhibition | complete | 100
